Where a name gives a salt, the structure may show the parent alone.

As a reminder, the melting point is the temperature, or range, at which the solid turns liquid. The IC50 is the concentration needed to halve the response being measured.

The target of one data set is human V2 receptor (Homo sapiens, UniProt P30518). In words: V2 binding assay (3H-AVP displacement, HEK-293 membranes). Also noted: expressed in transfected cells; host or cells: HEK-293 (membranes). Conditions: for inhibition at 1 µM: 1.0 μM compound, read-out: V2@1.0, % Inh. In short, it runs like this:
(§1)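 Each well: membranes, test compound (from 10% DMSO working stock), 3H-AVP. Buffer pH 7.5 with 0.1% BSA and protease inhibitors; 1 h, room temperature. Non-specific binding: 1.25 μM AVP. Filter, wash, count.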

Data set [1] has as its target T1, human V1b receptor (Homo sapiens, UniProt P47901).
T1 sequence (P47901 1-424): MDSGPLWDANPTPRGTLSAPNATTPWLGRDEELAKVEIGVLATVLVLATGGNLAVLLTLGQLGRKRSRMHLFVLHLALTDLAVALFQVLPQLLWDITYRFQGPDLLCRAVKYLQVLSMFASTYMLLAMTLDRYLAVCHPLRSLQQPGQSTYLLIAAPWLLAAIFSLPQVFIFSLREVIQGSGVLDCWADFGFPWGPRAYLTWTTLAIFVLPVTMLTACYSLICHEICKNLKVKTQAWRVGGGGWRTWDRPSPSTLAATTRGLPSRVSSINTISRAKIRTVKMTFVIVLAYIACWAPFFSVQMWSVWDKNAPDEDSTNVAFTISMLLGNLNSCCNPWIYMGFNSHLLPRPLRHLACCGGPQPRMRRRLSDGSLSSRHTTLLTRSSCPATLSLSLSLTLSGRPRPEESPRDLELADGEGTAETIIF
In words: V1b binding assay (3H-AVP displacement, HEK-293 membranes). Also noted: expressed in transfected cells; host or cells: HEK-293 (membranes). Conditions: for inhibition at 10 µM: 10 μM compound, read-out: V1b % Inh @10; for inhibition at 1 µM: 1.0 μM compound, read-out: V1b@1.0, % Inh. In short, it runs like this: as §1

Another data set deals with T2, NPY2 receptors (Homo sapiens, UniProt P49146).
T2 construct: Cell Membranes from KAN-TS cells having NPY2 receptors; endogenous in cells; host or cells: KAN-TS cells (membranes)
T2 sequence (P49146 1-381): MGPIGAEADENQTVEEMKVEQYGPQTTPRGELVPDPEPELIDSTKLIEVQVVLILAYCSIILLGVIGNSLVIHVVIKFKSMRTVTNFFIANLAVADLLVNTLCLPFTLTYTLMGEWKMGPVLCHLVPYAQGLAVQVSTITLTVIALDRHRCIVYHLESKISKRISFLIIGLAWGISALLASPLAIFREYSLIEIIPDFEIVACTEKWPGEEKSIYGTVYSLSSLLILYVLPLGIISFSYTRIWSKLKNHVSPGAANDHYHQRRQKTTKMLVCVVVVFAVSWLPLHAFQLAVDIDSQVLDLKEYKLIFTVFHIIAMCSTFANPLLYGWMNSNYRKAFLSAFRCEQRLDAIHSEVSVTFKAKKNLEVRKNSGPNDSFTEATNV
In words: Neuropeptide Y receptor binding assay (125I-PYY, KAN-TS cell membranes). Conditions: 10 μM compound; read-out: NPY-2@10, % Inh. Summed up: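 Membranes from KAN-TS cells competed with 125I-PYY in binding buffer containing BSA, test compound at 10 μM final, 1 hr at room temperature. Nonspecific binding defined with 1 μM PYY final. Tubes centrifuged, washed with PBS and bound radioactivity gamma-counted.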

The target of data set [2] is T3, human V1a receptor (Homo sapiens, UniProt P37288). In words: V1a binding assay (3H-AVP displacement, HEK-293 membranes). Also noted: expressed in transfected cells; host or cells: HEK-293 (membranes). Conditions: for inhibition at 1 µM: 1.0 μM compound, read-out: V1a@1.0, % Inh. Summed up: as §1
Data set [3] concerns the target T3, human V1a receptor. Description: V1a functional assay, intracellular calcium mobilization in transfected HEK-293 cells (FLIPR). Conditions: challenge 1 nM AVP; read-out: Cell-Based Functional activity V1a IC50. Set-up: expressed in transfected cells; host or cells: HEK-293. As for the experimental part: (§2) V1a, V1b or V2 Functional Assay
(§3) HEK-293 cells were grown in DMEM media supplemented with 10% FBS and glutamine (Gibco BRL, Grand Island, N.Y.). Once transfected the cells were passed biweekly by trypsinization and seeded into 96 well plates at 33,000 cells per well. HEK-293 were transfected with human V1a, V1b or V2 DNA using DMRIE-C reagent from Life Technologies, Inc., Grand Island, N.Y. Cells were tested for their responsiveness to vasopressin 48 hours after transfection. Stable lines were generated by selecting cells grown in culture media containing geneticin (500 μg/ml, Life Technologies).
(§4) Intracellular calcium mobilization was measured in HEK-293 cells transfected to express either human V1a, oxytocin or V1b receptors. Cells were plated into black 96-well Packard Clear-View plates 4 to 7 days prior to use. The cells were loaded with fluo-3 AM (Molecular Probes, Inc., Eugene, Oreg.) in buffer (25 mM Hepes, 125 mM NaCl, 1 gm/l glucose, 0.1% BSA, 5 mM KCl, 0.5 mM CaCl2, 0.5 mM MgCl2, pH 7.45) containing Pluronic (Molecular Probes) Cells were incubated with 5 μM fluo-3 AM for 1 hour shielded from light at room temperature. Intracellular fluorescence was measured using FLIPR (fluorometric imaging plate reader; Molecular Devices, Inc., Sunnyvale, Calif.). The FLIPR protocol called for images to be collected at one second intervals with 50 μl of the test compound added after the initial 10 images. An additional 70 images were then taken to detect any compound agonistic activity. FLIPR then added 50 μl of agonist peptide and collected a final 40 images for quantitating compound antagonistic activity. V1a- and V1b-expressing HEK cells were challenged with 1 nM and 0.5 nM AVP, respectively. Oxytocin-expressing HEK cells were challenged with 0.5 nM oxytocin (Peninsula Labs).
(§5) The data from the cAMP accumulation and the calcium mobilization assays are expressed as IC50 values as determined from dose response curves.

Data set [4] concerns the target T1, human V1b receptor. Description: V1b functional assay, intracellular calcium mobilization in transfected HEK-293 cells (FLIPR). The class given is cell-based. Also noted: expressed in transfected cells; host or cells: HEK-293. Conditions: for IC50: challenge 0.5 nM AVP, read-out: Cell-Based Functional activity V1b IC50. As for the experimental part:
as §2, §3, §4, §5

T3 sequence (P37288 whole entry): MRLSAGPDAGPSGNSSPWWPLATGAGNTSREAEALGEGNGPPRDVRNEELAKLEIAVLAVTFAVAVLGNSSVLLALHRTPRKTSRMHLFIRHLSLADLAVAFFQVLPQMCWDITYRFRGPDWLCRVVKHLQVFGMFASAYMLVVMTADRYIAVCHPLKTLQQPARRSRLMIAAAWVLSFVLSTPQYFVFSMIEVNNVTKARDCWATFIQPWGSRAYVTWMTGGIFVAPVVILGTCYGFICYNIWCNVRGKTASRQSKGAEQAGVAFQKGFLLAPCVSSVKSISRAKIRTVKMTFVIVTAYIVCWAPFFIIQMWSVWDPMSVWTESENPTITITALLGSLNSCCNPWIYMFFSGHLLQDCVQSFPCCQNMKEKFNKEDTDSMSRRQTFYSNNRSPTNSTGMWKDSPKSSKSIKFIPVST
Sequence of human V2 receptor (P30518 whole entry): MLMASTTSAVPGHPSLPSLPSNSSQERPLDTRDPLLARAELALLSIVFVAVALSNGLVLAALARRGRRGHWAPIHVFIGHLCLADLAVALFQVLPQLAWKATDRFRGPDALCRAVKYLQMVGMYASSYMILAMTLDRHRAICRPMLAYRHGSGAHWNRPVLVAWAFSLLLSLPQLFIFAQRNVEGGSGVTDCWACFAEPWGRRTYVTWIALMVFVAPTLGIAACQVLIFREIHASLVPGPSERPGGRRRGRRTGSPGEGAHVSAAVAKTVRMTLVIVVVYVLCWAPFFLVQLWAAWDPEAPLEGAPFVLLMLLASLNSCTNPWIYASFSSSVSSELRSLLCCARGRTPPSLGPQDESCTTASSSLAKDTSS

Compound `NCCCn1c(=O)n(C2CCN(C(=S)NC(c3ccccc3)c3ccccc3)CC2)c2ccccc21` (as salt: hydrochloride) [Compound 55, 1-[(N1-Piperidinocarbothioyldiphenylmethylamino)-4-yl]-3-(3-aminopropyl)-1,3-dihydrobenzimidazol-2-one Monohydrochloride] showed a melting point of 189 to 190 °C.
In turn, `O=c1[nH]c2ccccc2n1C1CCN(C(=S)NCCc2ccc(Cl)cc2)CC1` [Compound 2] had a melting point of 234 to 236 °C. In addition, the inhibition at 1 µM on human V2 receptor was found to be 7%. At human V1b receptor [1], the inhibition at 10 µM turned out to be 0%. For the same compound, the inhibition at 10 µM at NPY2 receptors turned out to be 1%. Besides, on human V1a receptor [2], the inhibition at 1 µM stood at 21%.
The compound `O=c1[nH]c2ccccc2n1C1CCN(C(=S)Nc2ccccc2)CC1` [Compound 3] displayed a melting point of 250 to 252 °C. The inhibition at 1 µM at human V2 receptor was 7%. The inhibition at 10 µM at human V1b receptor [1] worked out at 0%. At NPY2 receptors, the inhibition at 10 µM was 13%. Besides, the inhibition at 1 µM on human V1a receptor [2] turned out to be 0%.
`COc1ccc(NC(=S)N2CCC(n3c(=O)[nH]c4ccccc43)CC2)cc1` [Compound 5] came in with a melting point of 238 to 243 °C. For the same compound, the inhibition at 1 µM on human V2 receptor was found to be 34%. Besides, the inhibition at 10 µM at human V1b receptor [1] was determined as 8%. In addition, the inhibition at 10 µM on NPY2 receptors was 14%. For the same compound, on human V1a receptor [2], the inhibition at 1 µM worked out at 38%.
For `NCCCn1c(=O)n(C2CCN(C(=O)Nc3ccccc3-c3ccccc3)CC2)c2ccccc21` [Compound 62, 1-[(N1-Piperidinocarboyl-2-biphenylylamino)-4-yl]-3-(3-aminopropyl)-1,3-dihydro-benzimidazol-2-one hydrochloride], the inhibition at 1 µM at human V2 receptor turned out to be 0%. In addition, the inhibition at 10 µM on human V1b receptor [1] worked out at 35%; on NPY2 receptors, 50%. The half-inhibitory concentration (IC50) was found to be 690 nM on human V1a receptor [3] and 200 nM on human V1a receptor [2]. On human V1b receptor [4] (HEK293, 30 μM compound, read-out: Cell-Based Functional activity V1b % Inh. @ 30), the inhibition at 30 µM was 0%.
Turning to `NCCn1c(=O)n(C2CCN(C(=S)NC(c3ccccc3)c3ccccc3)CC2)c2ccccc21` [Compound 63, 1-[(N1-Piperidinocarbothioyldiphenylmethylamino)-4-yl]-3-(2-aminoethyl)-1,3-dihydrobenzimidazol-2-one Hydrochloride], at human V2 receptor, the inhibition at 1 µM was determined as 42%. Moreover, the IC50 is 4700 nM on human V1b receptor [1], 310 nM on human V1a receptor [3], 8060 nM on human V1b receptor [4] and 50 nM at human V1a receptor [2]. For the same compound, the values for the inhibition at 10 µM on human V1b receptor [1] and on NPY2 receptors were 74% and 94%, respectively.
Regarding `NCCCCn1c(=O)n(C2CCN(C(=S)NC(c3ccccc3)c3ccccc3)CC2)c2ccccc21` [Compound 64, 1-[(N1-Piperidinocarbothioyldiphenylmethylamino)-4-yl]-3-(4-aminobutyl)-1,3-dihydro-benzimidazol-2-one], the IC50 amounted to 560 nM at human V2 receptor; 5400 nM on human V1b receptor [1]; 140 nM on human V1a receptor [3]; 12100 nM on human V1b receptor [4]; 24 nM at human V1a receptor [2]. The inhibition at 10 µM at NPY2 receptors was 93%.
For `NCCCCn1c(=O)n(C2CCN(C(=S)NC(c3ccccc3)c3ccc(Cl)cc3)CC2)c2ccccc21` (stereo not drawn) [Compound 65, 1-[(N1-Piperidinocarbothioyl-4-chlorodiphenylmethylamino)-4-yl]-3-(4-aminobutyl)-1,3-dihydro-benzimidazol-2-one], the IC50 on human V2 receptor turned out to be 500 nM; on human V1a receptor [3], 460 nM; on human V1b receptor [4], 21000 nM; on human V1a receptor [2] it was 77 nM. In addition, the inhibition at 10 µM on human V1b receptor [1] and on NPY2 receptors was 51% throughout.
With `C[C@H](NC(=S)N1CCC(n2c(=O)n(CCCN3CCCCC3)c3ccccc32)CC1)c1ccccc1` [Compound 116, 1-[(N1-piperidinocarbonthioyl-R-(−)-alpha-methylbenzylamino)-4-yl]-3-(3-N-piperidinylpropyl)-1,3-dihydrobenzimidazol-2-one], the inhibition at 1 µM at human V2 receptor was found to be 18%; on human V1b receptor [1], 47%; at human V1a receptor [2], 85%. Besides, the inhibition at 10 µM at NPY2 receptors worked out at 25%.
`CCCc1ccccc1NC(=O)N1CCC(n2c(=O)n(CCCN3CCCCC3)c3ccccc32)CC1` [Compound 117, 1-[(N1-piperidinocarbonyl-2-propylphenylamino)-4-yl]-3-(3-N-piperidinylpropyl)-1,3-dihydrobenzimidazol-2-one]: the inhibition at 1 µM on human V2 receptor is 15%; at human V1b receptor [1] it was 43%; on human V1a receptor [2], 68%. The inhibition at 10 µM at NPY2 receptors came to 1%. Further, on human V1a receptor [2], the IC50 was 331 nM.
As for `O=c1n(CCCN2CCCCC2)c2ccccc2n1C1CCN(C(=S)NCC(c2ccccc2)c2ccccc2)CC1` [Compound 118, 1-[(N1-piperidinocarbothioyl-2,2-diphenylethylamino)-4-yl]-3-(3-N-piperidinylpropyl)-1,3-dihydrobenzimidazol-2-one], the results for the inhibition at 1 µM at human V2 receptor, at human V1b receptor [1] and on human V1a receptor [2] were 21%, 55% and 94%, respectively. Also, the inhibition at 10 µM at NPY2 receptors came out at 52%.
As for `COc1ccccc1NC(=S)N1CCC(n2c(=O)n(CCCN3CCCCC3)c3ccccc32)CC1` [Compound 119, 1-[(N1-piperidinocarbothioyl-2-methoxyphenylamino)-4-yl]-3-(3-N-piperidinylpropyl)-1,3-dihydrobenzimidazol-2-one], the inhibition at 1 µM on human V2 receptor is 19%; at human V1b receptor [1] it was 29%; on human V1a receptor [2] it was 48%. Besides, at NPY2 receptors, the inhibition at 10 µM came to 13%. The compound further showed a half-inhibitory concentration (IC50) on human V1a receptor [2] of 61 nM.
On to `O=C(NC(c1ccccc1)(c1ccccc1)c1ccccc1)N1CCC(n2c(=O)n(CCCN3CCCCC3)c3ccccc32)CC1` [Compound 120, 1-[(N1-piperidinocarbonyltriphenylmethylamino)-4-yl]-3-(3-N-piperidinylpropyl)-1,3-dihydrobenzimidazol-2-one], for which the inhibition at 1 µM turned out to be 20% on human V2 receptor, 25% on human V1b receptor [1] and 20% on human V1a receptor [2]. The inhibition at 10 µM on NPY2 receptors amounted to 100%.

For the origin of these results see US6653478B2, “Substituted benzimidazol-2-ones as vasopressin receptor antagonists and neuropeptide Y modulators” (Ortho-McNeil Pharmaceutical, Inc., priority 2000, dated 2003).
